Values of other authors, collected in patent US20100172972A1, “ENTERIC COATED PHARMACEUTICAL COMPOSITIONS” (priority 2007, published 2010).
Counter-ions that a name gives are not always drawn.

How the values were obtained:
[1] = not given; remark: listed apart in the source

Compound	solubility in water	drug in the dosage hydrolyzed to 1-naphthol ([1]; pH 1.0)	drug in the dosage degrades to 1-naphthol ([1]; pH 2.0, in one hour)	time for 10% degradation ([1]; pH 4.0)
CNCC[C@H](Oc1cccc2ccccc12)c1cccs1 [Duloxetine]	slightly soluble in water	–	–	–
CNCC[C@H](Oc1cccc2ccccc12)c1cccs1 [Duloxetine hydrochloride]	–	50%	10%	up to 63 hours
